*1 amine or outer side, *2 acyl side, *3 side chain or, on linkers, in order; H or OH if unused. Where a SMILES comes first, the peptide text is derived from it. Side-chain parts run from the residue outwards. [ ]: non-standard residue; d: D form. The star is where a group is joined. C18 diacid = O=C(O)CCCCCCCCCCCCCCCCC(=O)*; γGlu = O=C(O)[C@H](CCC(=O)[*:2])N[*:1]; AEEA = NCCOCCOCC(=O)O; Aib = CC(C)(N)C(=O)O
Tests used:
Type in all cases: in vivo
[1] = Pharmacokinetic evaluation in minipigs; details: female, Gottingen, minipig, plasma
C57Bl/6 mice = experiment: Intraperitoneal glucose tolerance test (ipGTT) after s.c. treatment; details: for Incremental blood glucose concentration AUCi / Blood glucose concentration AUC: mean ± SEM; for Incremental blood glucose concentration AUCi: vehicle +4.93 ± 0.324; for Blood glucose concentration AUC: vehicle +22.15 ± 0.662
Experimental: Healthy, normoglycemic male C57Bl/6NCrl mice were ordered in an age of 9-10 weeks with an approximate body weight (BW) of 24-26 g at Charles River Laboratories Deutschland GmbH, 97633 Sulzfeld, Germany. Mice were shipped grouped housed (N=4 per cage), acclimatized for one week and remained grouped housed throughout the entire study. Mice were housed under vivarium conditions that included a 12 h light/dark cycle (light phase 06:00 AM-06:00 PM), mean room temperature of 22±2° C. and a relative mean humidity of 55±10%. All animals had free access to food (Ssniff R/M-H diet) and water prior to study start.
The primary objective of the study was to investigate the compound-induced lowering of the blood glucose excursion and improvement of glucose tolerance in a mouse ipGTT setting and therefore the primary parameters included blood glucose, delta blood glucose (normalized to the time point just prior to the i.p. glucose challenge, t=0 h) and their respective calculated area under curve (AUC) values. The study was performed as an acute, single dosing study with 6 groups and the male animals were randomly divided to groups of 7-8 mice per group. Dose-dependent pharmacodynamic blood glucose lowering efficacy of the GIPR agonist was analyzed with s.c. injections 6 h before the i.p. glucose load in the dose range from 3 up to 100 nmol/kg and compared to the vehicle group as well as the semaglutide positive control at a dose of 10 nmol/kg.
In more detail, mice were fed overnight and on the following morning brought to the lab with food removed but ad libitum access to water. Blood samplings (5 μl) were performed at: −6.5, −0.5, 0, 0.17, 0.5, 1, 1.5, 2 and 3 h before and after the glucose bolus of 1 g glucose per kg BW i.p. given at time point t=0 h. On time point t=0.17 h an additional K-EDTA plasma sample from 60-80 μl blood was taken for plasma insulin analysis. Blood was withdrawn from the tip of the tail. The GIPR agonist and semaglutide were dissolved in 10 mM phosphate buffer pH 7.4 with 2.3% glycerol and 0.01% polysorbat 20 (vehicle) and s.c. treatment was performed −6 h before the glucose load (t=0 h) using an injection volume of 5 ml/kg. The injection solutions were freshly prepared prior to the experiment using sterile filtered vehicle solution.
Blood glucose was determined enzymatically (Gluco-quant® Glucose/HK kit on Roche/Hitachi 912). Plasma insulin was determined using a mouse/rat insulin sandwich immunoassay kit from Meso Scale Discovery.
All data were collected using Microsoft Excel. None of the data were collected online. The results are expressed as means±standard error of the mean (SEM). As primary study parameters, blood glucose, baseline (time point t=0 h) subtracted delta blood glucose and their respective calculated area under curve (AUC) values were determined. The respective AUC data were calculated using the trapezoid rule for the time period t=0 h until t=2 h.
The statistical analysis of the ipGTT blood glucose excursion data response following subcutaneous compound or vehicle treatment was performed on the calculated AUC values of blood glucose raw data as well as the calculated AUC values for baseline subtracted delta blood glucose data. In a first step the Levene's test was used to test for equality of variances between groups. Where Levene's test was significant (p s 0.05), a rank transformation of the calculated AUC data was applied to stabilize the variances before ANOVA analysis was conducted. Where Levene's test was not significant (p>0.05) ANOVA was conducted without prior rank transformation. In a second step a One-way ANOVA analysis for factor treatment followed by Dunnett's multiple comparisons test vs. vehicle group was used to test for statistical differences. Different levels of significance were defined as *=p<0.05, **=p<0.001, ***=p<0.0001. All analyses were performed using SAS (version 9.4) under Linux via the interface software EverSt@t V6.1. […]

[2] = Pharmacokinetic evaluation in monkeys; details: male, cynomolgus monkey, plasma
Experimental: (§1) Compounds were administered in a suitable buffer system, e.g. PBS buffer solution at pH7.4 or DPBS solution at concentrations of 0.05, 0.1, 0.5 or 1 mg/ml depending on dose, species and administration volume.
Male cynomolgus monkeys were dosed 0.1 mg/kg intravenously (i.v.) or subcutaneously (s.c.). Blood samples were collected after 0.083, 0.25, 0.5, 1, 2, 4, 8, 24, 32, 48, and 72 h post i.v. application and 0.5, 1, 2, 4, 8, 24, 48, 72, and 96 h post s.c. application, respectively. Plasma samples were analyzed after protein precipitation via liquid chromatography mass spectrometry (LC/MS). PK parameters and half-life were calculated using Phoenix-WinNonlin 8.1 using a non-compartmental model and linear trapezoidal interpolation calculation.
(§2) Pharmacokinetic profiles were determined as described in Methods.

[3] = Pharmacokinetic evaluation in mice; details: female, C57Bl/6, mouse, plasma
Experimental: as §1
Female C57Bl/6 mice were dosed 0.25 mg/kg, 0.5 mg/kg or 1 mg/kg intravenously (i.v.) or subcutaneously (s.c.). The mice were sacrificed, and blood samples were collected after 0.08, 0.25, 0.5, 1, 2, 4, 8, 24, 32, and 48 h post i.v. application and 0.25, 0.5, 1, 2, 4, 8, 24, 32, and 48 h post s.c. application, respectively. Plasma samples were analyzed after protein precipitation via liquid chromatography mass spectrometry (LC/MS). PK parameters and half-life were calculated using Phoenix-WinNonlin 8.1 using a non-compartmental model and linear trapezoidal interpolation calculation.
as §2

[4] = 3 nmol/kg s.c. 6 h before i.p. glucose load
[5] = 10 nmol/kg s.c. 6 h before i.p. glucose load
[6] = 30 nmol/kg s.c. 6 h before i.p. glucose load
[7] = 100 nmol/kg s.c. 6 h before i.p. glucose load

SMILES: CC[C@H](C)[C@H](NC(=O)[C@H](Cc1ccccc1)NC(=O)[C@H](CCC(=O)O)NC(=O)[C@H](CCC(=O)O)NC(=O)[C@H](CCC(N)=O)NC(=O)[C@H](Cc1c[nH]cn1)NC(=O)[C@@H](NC(=O)[C@H](CCCNC(=N)N)NC(=O)[C@H](CC(=O)O)NC(=O)[C@H](CCCCNC(=O)COCCOCCNC(=O)COCCOCCNC(=O)CC[C@H](NC(=O)CCCCCCCCCCCCCCCCC(=O)O)C(=O)O)NC(=O)C(C)(C)NC(=O)[C@@H](NC(=O)[C@H](CO)NC(=O)[C@H](CC(C)C)NC(=O)[C@H](CC(=O)O)NC(=O)[C@H](CO)NC(=O)[C@@H](NC(=O)[C@H](Cc1ccccc1)NC(=O)[C@@H](NC(=O)CNC(=O)[C@H](CCC(=O)O)NC(=O)C(C)(C)NC(=O)[C@@H](N)Cc1ccc(O)cc1)[C@@H](C)O)[C@@H](C)CC)[C@@H](C)CC)[C@@H](C)CC)C(=O)N[C@@H](CCC(=O)O)C(=O)N[C@@H](Cc1c[nH]c2ccccc12)C(=O)N[C@@H](CC(C)C)C(=O)N[C@@H](CC(C)C)C(=O)N[C@@H](C)C(=O)N[C@@H](CCC(N)=O)C(=O)NCC(=O)N1CCC[C@H]1C(=O)N[C@@H](CO)C(=O)N[C@@H](CO)C(=O)NCC(=O)N[C@@H](C)C(=O)N1CCC[C@H]1C(=O)N1CCC[C@H]1C(=O)N1CCC[C@H]1C(=O)N[C@@H](CO)C(N)=O [SEQ ID NO: 9, H2N-Y-Aib-E-G-T-F-I-S-D-I-S-I-Aib-K[{AEEA}2-gGlu-C18OH]-DRIHQEEFIEWILAQGPSSGAPPPS-NH2] (H-Y[Aib]EGTFISDLSI[Aib]K([AEEA-AEEA-γGlu-C18 diacid])DRIHQEEFIEWLLAQGPSSGAPPPS-NH2)
- AUC(0-t) ([1]; iv, 0.05 mg/kg i.v.): 177 µg·h/mL
- Cmax ([1]; iv, 0.05 mg/kg i.v.): 5530 ng/mL
- half-life ([1]; iv, 0.05 mg/kg i.v.): 75.8 h
- clearance ([1]; iv, 0.05 mg/kg i.v., read-out: CI (converted)): 3.84 mL/day/kg
- AUC(0-t) ([1]; sc, 0.1 mg/kg s.c.): 228 µg·h/mL
- Cmax ([1]; sc, 0.1 mg/kg s.c.): 3080 ng/mL
- bioavailability ([1]; sc, 0.1 mg/kg s.c.): 64%
- Incremental blood glucose concentration AUCi (C57Bl/6 mice; [4]): +3.41 ± 0.520 mmol/L* 0-2 h
- Blood glucose concentration AUC (C57Bl/6 mice; [4]): +21.07 ± 0.544 mmol/L* 0-2 h
- Incremental blood glucose concentration AUCi (C57Bl/6 mice; [5]): +3.33 ± 0.210 mmol/L* 0-2 h
- Blood glucose concentration AUC (C57Bl/6 mice; [5]): +19.28 ± 0.518 mmol/L* 0-2 h
- Incremental blood glucose concentration AUCi (C57Bl/6 mice; [6]): +2.76 ± 0.268 mmol/L* 0-2 h
- Blood glucose concentration AUC (C57Bl/6 mice; [6]): +18.20 ± 0.662 mmol/L* 0-2 h
- Incremental blood glucose concentration AUCi (C57Bl/6 mice; [7]): +1.90 ± 0.158 mmol/L* 0-2 h
- Blood glucose concentration AUC (C57Bl/6 mice; [7]): +14.81 ± 0.533 mmol/L* 0-2 h
- i.p. glucose tolerance compared to the vehicle group (C57Bl/6 mice; single s.c. dose 3-100 nmol/kg, ipGTT in C57Bl/6 mice): significant and dose-dependent improvement
- minimal effective dose (improvement of i.p. glucose tolerance) (C57Bl/6 mice; single s.c. dose, ipGTT in C57Bl/6 mice): 3 to 10 nmol/kg
- AUC(0-t) ([2]; iv, 0.1 mg/kg i.v.): 149 µg·h/mL
- Cmax ([2]; iv, 0.1 mg/kg i.v.): 6740 ng/mL
- half-life ([2]; iv, 0.1 mg/kg i.v.): 51.4 h
- clearance ([2]; iv, 0.1 mg/kg i.v., read-out: CI (converted)): 10.7 mL/day/kg
- AUC(0-t) ([2]; sc, 0.1 mg/kg s.c.): 122 µg·h/mL
- Cmax ([2]; sc, 0.1 mg/kg s.c.): 1800 ng/mL
- bioavailability ([2]; sc, 0.1 mg/kg s.c.): 83%
- half-life ([2]; sc, 0.1 mg/kg s.c.): 58.4 h
- AUC(0-t) ([3]; iv, 0.25 mg/kg i.v.): 25.7 µg·h/mL
- Cmax ([3]; iv, 0.25 mg/kg i.v.): 3920 ng/mL
- half-life ([3]; iv, 0.25 mg/kg i.v.): 8 h
- clearance ([3]; iv, 0.25 mg/kg i.v., read-out: CI (converted)): 230 mL/day/kg
- AUC(0-t) ([3]; sc, 0.5 mg/kg s.c.): 42.2 µg·h/mL
- Cmax ([3]; sc, 0.5 mg/kg s.c.): 2190 ng/mL
- bioavailability ([3]; sc, 0.5 mg/kg s.c.): 82%
- half-life ([3]; sc, 0.5 mg/kg s.c.): 7.3 h
